The values below come from patent US12428394B2, “2,4-disubstituted pyrimidine derivative, preparation method therefor and use thereof” (CHENGDU ZENITAR BIOMEDICAL TECHNOLOGY CO., LTD., priority 2019, dated 2025).

Assay [1] deals with T1, FLT3 (Homo sapiens, UniProt P36888).
T1 construct: purchased Eurofins
T1 sequence (P36888 27-993): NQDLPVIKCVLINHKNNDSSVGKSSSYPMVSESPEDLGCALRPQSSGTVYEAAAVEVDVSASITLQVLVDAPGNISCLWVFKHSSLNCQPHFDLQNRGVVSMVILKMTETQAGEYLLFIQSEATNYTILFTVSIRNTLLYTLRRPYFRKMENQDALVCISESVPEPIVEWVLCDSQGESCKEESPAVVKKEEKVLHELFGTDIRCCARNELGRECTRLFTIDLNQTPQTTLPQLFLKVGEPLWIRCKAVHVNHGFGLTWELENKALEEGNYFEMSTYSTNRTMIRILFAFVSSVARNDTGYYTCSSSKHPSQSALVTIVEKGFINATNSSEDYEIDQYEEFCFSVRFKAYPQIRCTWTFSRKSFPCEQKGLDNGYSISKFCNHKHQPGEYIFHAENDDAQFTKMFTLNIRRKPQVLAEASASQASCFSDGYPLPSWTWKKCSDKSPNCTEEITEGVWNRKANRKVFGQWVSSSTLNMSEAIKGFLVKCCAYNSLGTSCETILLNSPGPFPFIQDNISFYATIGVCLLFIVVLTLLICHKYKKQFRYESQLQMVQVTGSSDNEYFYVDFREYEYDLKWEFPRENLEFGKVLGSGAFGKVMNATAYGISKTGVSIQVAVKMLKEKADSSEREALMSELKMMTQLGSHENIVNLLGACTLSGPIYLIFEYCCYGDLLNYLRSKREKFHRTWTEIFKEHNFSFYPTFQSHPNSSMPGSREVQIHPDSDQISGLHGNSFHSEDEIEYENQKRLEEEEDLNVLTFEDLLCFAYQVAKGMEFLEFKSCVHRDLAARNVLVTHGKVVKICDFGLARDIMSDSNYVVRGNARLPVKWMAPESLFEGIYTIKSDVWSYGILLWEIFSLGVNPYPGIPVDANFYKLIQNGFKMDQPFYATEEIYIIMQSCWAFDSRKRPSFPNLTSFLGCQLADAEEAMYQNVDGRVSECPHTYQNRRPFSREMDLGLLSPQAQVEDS
Put plainly: In vitro kinase activity experiment, FLT3. In kind it is biochemical. The note with it: 40 min; inhibition rate of enzyme at 500 nM; measured by Eurofins; read-out: Kinase activity @ 500 nM (%) FLT3. The method, then:
(§1) Buffer solution ([…], pH 7.0, 0.2 mm EDTA, 10 mM mncl2), kinase to be tested, substrate of kinase to be tested, 10 mM magnesium acetate and γ33P-ATP solution, and compounds with different concentrations were added to a reaction tube in turn, then MgATP was added to initiate the enzyme reaction process, and incubated at room temperature for 40 min. Then, the reaction was terminated with 5 μl of […], and 10 μl of the reaction solution was titrated onto the Filtermat A membrane, washed with 75 mM phosphate solution for three times, each time for 5 min., and then washed with methanol once. Finally, the Filtermat A membrane was dried and the scintillation count was carried out.

Assay [2] has as its system SET-2 cells (JAK2 V617F). Kind of assay: Inhibition of cell proliferation by MTT experiment, SET-2. It is filed as cell-based. As to conditions: Homo sapiens, SET-2; MTT, 72 h; read-out: IC50 value on cell proliferation inhibition, SET-2 (V617F). The source says:
(§2) MV4-11, MOLM-13 and SET-2 were used to determine the influence of the test compound of the present invention on the activity of cancer cells. MV4-11 and MOLM-13 were human leukemia cell lines from American Type Culture Collection (ATCC), expressing FLT3 receptor and containing FLT3-ITD mutation; and SET-2 was a primary thrombocythemia cell purchased from Chengdu Bowerston Biotechnology Co., Ltd., China, continuously expressing JAK2 receptor and containing the mutation of V617F.
(§3) MV4-11, MOLM-13 and SET-2 cells were filled in a 96-well petri dish with 100 μL IMDM as the medium, containing 10% fetal bovine serum (100 mL/bottle, purchased from Grassland Lvye Bio-Engineering Materials Co., Ltd. and cryopreserved at −20° C.), and with 10,000-15,000 cells in each well. […] In each group, 3-5 replicate wells were set and incubated in 5% CO2 at 37° C. for 72 h. At the endpoint, 20 μL MTT (5 mg/mL) was added to each well, and the cells were incubated for another 1-3 h.
(§4) After the inhibition rate of each concentration of compound on cell proliferation activity was calculated, the dose-response curve and IC50 value were fitted by Graphpad prism software according to the compound treatment concentrations and corresponding inhibition rates.

The target of assay [3] is T2, JAK2 (Homo sapiens, UniProt O60674).
T2 construct: purchased Eurofins
T2 sequence (O60674 whole entry): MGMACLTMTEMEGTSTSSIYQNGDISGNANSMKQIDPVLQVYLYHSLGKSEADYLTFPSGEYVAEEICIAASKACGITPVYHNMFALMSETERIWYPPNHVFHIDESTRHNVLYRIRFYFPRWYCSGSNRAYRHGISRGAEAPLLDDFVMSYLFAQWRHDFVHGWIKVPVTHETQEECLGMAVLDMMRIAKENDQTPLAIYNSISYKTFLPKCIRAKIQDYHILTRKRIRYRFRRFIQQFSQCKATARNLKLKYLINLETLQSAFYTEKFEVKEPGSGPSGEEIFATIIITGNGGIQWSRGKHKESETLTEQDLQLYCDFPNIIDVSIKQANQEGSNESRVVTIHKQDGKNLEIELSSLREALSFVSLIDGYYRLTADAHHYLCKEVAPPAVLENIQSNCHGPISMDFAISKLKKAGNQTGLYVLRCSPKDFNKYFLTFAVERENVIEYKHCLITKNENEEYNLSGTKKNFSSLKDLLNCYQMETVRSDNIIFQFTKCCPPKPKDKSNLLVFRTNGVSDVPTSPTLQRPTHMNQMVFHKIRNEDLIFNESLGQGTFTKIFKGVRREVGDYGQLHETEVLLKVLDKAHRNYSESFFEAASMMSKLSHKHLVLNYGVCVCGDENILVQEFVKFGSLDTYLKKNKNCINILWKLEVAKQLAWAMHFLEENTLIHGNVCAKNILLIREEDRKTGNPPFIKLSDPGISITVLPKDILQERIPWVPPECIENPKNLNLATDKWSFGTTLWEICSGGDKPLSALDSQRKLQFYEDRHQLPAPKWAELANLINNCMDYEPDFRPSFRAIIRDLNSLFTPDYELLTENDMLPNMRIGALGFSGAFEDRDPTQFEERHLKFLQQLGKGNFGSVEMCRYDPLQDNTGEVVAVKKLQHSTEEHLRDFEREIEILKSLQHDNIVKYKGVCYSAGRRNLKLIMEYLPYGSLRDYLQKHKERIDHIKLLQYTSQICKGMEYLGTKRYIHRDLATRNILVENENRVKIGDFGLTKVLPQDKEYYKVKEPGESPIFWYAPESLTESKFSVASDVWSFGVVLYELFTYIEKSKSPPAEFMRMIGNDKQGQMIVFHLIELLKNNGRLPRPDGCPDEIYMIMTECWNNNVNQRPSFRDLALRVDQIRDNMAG
Kind of assay: In vitro kinase activity experiment, JAK2. In kind it is biochemical. As to conditions: inhibition rate of enzyme at 500 nM; measured by Eurofins. The method, then:
as §1

Assay [4] relates to MV4-11 cells (FLT3-ITD+/+). Put plainly: Inhibition of cell proliferation by MTT experiment, MV4-11. In kind it is cell-based, human. As to conditions: Homo sapiens, MV4-11; MTT, 72 h; read-out: IC50 value on cell proliferation inhibition, MV4-11 FLT3-ITD+/+.
Excerpt: as §2, §3, §4

Assay [5] relates to MOLM-13 cells (FLT3-ITD-/+). Put plainly: Inhibition of cell proliferation by MTT experiment, MOLM-13. It is filed as cell-based, human. As to conditions: Homo sapiens, MOLM-13; MTT, 72 h; read-out: IC50 value on cell proliferation inhibition, MOLM-13 FLT3-ITD-/+.
Excerpt: as §2, §3, §4

As to `Cc1cnc(Nc2ccc(N3CCC(N(C)CCN4CCOCC4)CC3)c(F)c2)nc1-c1cnn(C(C)C)c1` [CLJ-54, N-(3-fluoro-4-(4-(methyl (2-morpholinoethyl)amino)piperidine-1-yl)phenyl)-4-(1-isopropyl-1H-pyrazole-4-yl)-5-methylpyrimidine-2-amine], in assay [1], the inhibition at 0.5 µM turned out to be 23%. In addition, the IC50 in assay [2], in assay [4] and in assay [5] was over 1 µM throughout. Also, in assay [3], the “Kinase activity @ 500 nM (%) JAK2” value is 17%.
`CCCCN1CCC(n2cc(-c3nc(Nc4ccc(N5CCN(C)CC5)c(F)c4)ncc3F)cn2)CC1` [CLJ-13, 5-fluoro-N-(3-fluoro-4-(4-methylpiperazine-1-yl)phenyl)-4-(1-(1-butylpiperidine-4-yl)-1H-pyrazole-4-yl) pyrimidine-2-amine]: in assay [1], the inhibition at 0.5 µM worked out at 95%. In addition, the IC50 is over 1 µM in assay [2], 0.01 to 0.1 µM in assay [4] and 0.1 to 1 µM in assay [5]. Further, in assay [3], the “Kinase activity @ 500 nM (%) JAK2” value came to 89%.
The matching figures for `Cc1cnc(Nc2ccc(N3CCN(C(=O)CO)CC3)c(F)c2)nc1-c1cnn(C(C)C)c1` [CLJ-40, 5-methyl-N-(3-fluoro-4-(4-hydroxyacetylpiperazine-1-yl)phenyl)-4-(1-isopropyl-1H-pyrazole-4-yl) pyrimidine-2-amine]: 94%, 0.1 to 1 µM, 0.01 to 0.1 µM, 0.01 to 0.1 µM and 96%.
Regarding `Cc1cnc(Nc2ccc(N3CCC[C@@H](N(C)C(=O)CCC#N)C3)c(F)c2)nc1-c1cnn(C(C)C)c1` [CLJ-65, (R)-3-cyano-N-(1-(2-fluoro-4-((4-(1-isopropyl-1H-pyrazole-4-yl)-5-methylpyrimidine-2-yl)amino)phenyl)piperidine-3-yl)-N-methylpropionamide], the inhibition at 0.5 µM in assay [1] turned out to be 89%. Besides, the IC50 was in the range of 0.1 to 1 µM in assay [2], 0.01 to 0.1 µM in assay [4] and 0.01 to 0.1 µM in assay [5]. For the same compound, the “Kinase activity @ 500 nM (%) JAK2” value in assay [3] was 90%.
Take `C=CC(=O)CCN1CC2(CCN(c3ccc(Nc4ncc(C)c(-c5cnn(C(C)C)c5)n4)cc3F)CC2)C1` [CLJ-77, 1-(7-(2-fluoro-4-((4-(1-isopropyl-1H-pyrazole-4-yl)-5-methylpyrimidine-2-yl)-amino)-phenyl)-2,7-diazaspiro [3.5]nonane-2-yl)-4-pentenamide]: the inhibition at 0.5 µM in assay [1] came out at 55%. Further, the IC50 in assay [2], in assay [4] and in assay [5] was 0.1 to 1 µM in each case. Besides, in assay [3], the “Kinase activity @ 500 nM (%) JAK2” value came out at 54%.
On to `CCCN(C)C1CCN(c2ccc(Nc3ncc(C)c(-c4cnn(C(C)C)c4)n3)cc2F)CC1` [CLJ-49, 5-methyl-N-(3-fluoro-4-(4-N-propyl-4-N-methylaminopiperidine-1-yl)phenyl)-4-(1-isopropyl-1H-pyrazole-4-yl) pyrimidine-2-amine], for which the inhibition at 0.5 µM in assay [1] stood at 91%. For the same compound, the IC50 in assay [2], in assay [4] and in assay [5] was 0.1 to 1 µM each time. Besides, in assay [3], the “Kinase activity @ 500 nM (%) JAK2” value is given as 95%.
As to `CC(C)n1cc(-c2nc(Nc3ccc(N4CCN(C5CCN(C)CC5)CC4)cc3)ncc2F)cn1` [CLJ-31, 5-fluoro-N-(4-(4-(1-methylpiperidine-4-yl)piperazine-1-yl)phenyl)-4-(1-isopropyl-1H-pyrazole-4-yl) pyrimidine-2-amine], the inhibition at 0.5 µM in assay [1] turned out to be 18%. The IC50 in assay [2], in assay [4] and in assay [5] was over 1 µM throughout. For the same compound, in assay [3], the “Kinase activity @ 500 nM (%) JAK2” value worked out at 25%.
Turning to `Cc1cnc(Nc2ccc(NS(=O)(=O)c3ccc4c(c3)CC(=O)N4)c(F)c2)nc1-c1cnn(C(C)C)c1` [CLJ-95, N-(2-fluoro-4-((4-(1-isopropyl-1H-pyrazole-4-yl)-5-methylpyrimidine-2-yl)amino)phenyl)-2-oxoindoline-5-sulfonamide], the inhibition at 0.5 µM in assay [1] was determined as 67%. Moreover, the IC50 in assay [2], in assay [4] and in assay [5] was 0.1 to 1 µM each time. The “Kinase activity @ 500 nM (%) JAK2” value in assay [3] is 66%.
With `Cc1nn(C(C)C)cc1-c1nc(Nc2ccc(N3CCN(C)CC3)c(F)c2)ncc1F` [CLJ-34], in assay [1], the inhibition at 0.5 µM came out at 95%. Further, the IC50 fell in the range of 0.1 to 1 µM in assay [2], 0.01 to 0.1 µM in assay [4] and 0.1 to 1 µM in assay [5]. In assay [3], the “Kinase activity @ 500 nM (%) JAK2” value amounted to 93%.
Take `CCCCCCN1CC2(CCN(c3ccc(Nc4ncc(C)c(-c5cnn(C(C)C)c5)n4)cc3F)CC2)C1` [CLJ-74, N-(3-fluoro-4-(2,7-diazaspiro [3.5]nonane-2-hexyl-7-yl)phenyl)-4-(1-isopropyl-1H-pyrazole-4-yl)-5-methylpyrimidine-2-amine]: the inhibition at 0.5 µM in assay [1] was 97%. For the same compound, the IC50 in assay [2], in assay [4] and in assay [5] was 0.01 to 0.1 µM each time. For the same compound, the “Kinase activity @ 500 nM (%) JAK2” value in assay [3] was 98%.
For `CCCN1CCN(CCN(C)C2CCN(c3ccc(Nc4ncc(C)c(-c5cnn(C(C)C)c5)n4)cc3F)CC2)CC1` [CLJ-57, N-(3-fluoro-4-(4-(methyl (4-propyl-1-piperazine ethyl)amino)piperidine-1-yl)phenyl)-4-(1-isopropyl-1H-pyrazole-4-yl)-5-methylpyrimidine-2-amine], the inhibition at 0.5 µM in assay [1] was determined as 96%. In addition, the IC50 in assay [2] lay within 0.1 to 1 µM; in assay [4], 0.001 to 0.01 µM; in assay [5], 0.01 to 0.1 µM. For the same compound, the “Kinase activity @ 500 nM (%) JAK2” value in assay [3] was determined as 97%.
In the case of `CC(C)n1cc(-c2nc(Nc3ccc(N4CCN(C5CCN(C)CC5)CC4)c(F)c3)ncc2F)cn1` [CLJ-32, 5-fluoro-N-(3-fluoro-4-(4-(1-methylpiperidine-4-yl)piperazine-1-yl)phenyl)-4-(1-isopropyl-1H-pyrazole-4-yl) pyrimidine-2-amine], the inhibition at 0.5 µM in assay [1] was 95%. In addition, the IC50 in assay [2] was in the range of 0.1 to 1 µM; in assay [4], 0.01 to 0.1 µM; in assay [5], 0.1 to 1 µM. Besides, the “Kinase activity @ 500 nM (%) JAK2” value in assay [3] turned out to be 90%.
For `CC(C)n1cc(-c2nc(Nc3ccc(N4CCC(N5CCCCC5)CC4)c(F)c3)ncc2F)cn1` [CLJ-33], in assay [1], the inhibition at 0.5 µM was determined as 23%. Further, the IC50 in assay [2], in assay [4] and in assay [5] was over 1 µM throughout. In addition, the “Kinase activity @ 500 nM (%) JAK2” value in assay [3] turned out to be 34%.
In the case of `CCN1CCN(c2ccc(Nc3ncc(F)c(-c4cnn(C5CCCC5)c4)n3)cc2F)CC1` [CLJ-17, 5-fluoro-N-(3-fluoro-4-(4-ethylpiperazine-1-yl)phenyl)-4-(1-cyclopentyl-1H-pyrazole-4-yl) pyrimidine-2-amine], the inhibition at 0.5 µM in assay [1] was determined as 94%. Further, the IC50 in assay [2] lay in the range of 0.1 to 1 µM; in assay [4], 0.01 to 0.1 µM; in assay [5], 0.1 to 1 µM. For the same compound, the “Kinase activity @ 500 nM (%) JAK2” value in assay [3] is reported as 90%.
